Starred links: 1 amine or outer side, 2 acyl side, 3 side chain; linkers in the order of their positions; H or OH if unused. Non-standard residues stand in square brackets, D forms with d. Residues, ends and D or L forms follow the SMILES beside them. Groups on a side chain read outwards from the residue. *: point of attachment. X1 = COc1cc2c(cc1-c1cccc(N*)c1)-c1c(c(C(=O)N3CCOCC3(C)C)nn1-c1cc(Cl)cc(Cl)c1)CO2; DOTA = O=C(O)CN1CCN(CC(=O)O)CCN(CC(=O)*)CCN(CC(=O)O)CC1; Suc = O=C(CCC(=O)[*:2])[*:1]
The compounds below were run against T1, human follicle-stimulating hormone receptor (FSHR) (Homo sapiens, UniProt P23945) (assay: Measurement of agonist cAMP production by activation of human FSHR). Settings: CHO-K1 human FSHR cells, 30 minutes at 37° C., HTRF cAMP kit; read-out: hFSHR Agonist cAMP EC50.
T1 construct: host or cells: CHO-K1
T1 sequence (P23945 18-695): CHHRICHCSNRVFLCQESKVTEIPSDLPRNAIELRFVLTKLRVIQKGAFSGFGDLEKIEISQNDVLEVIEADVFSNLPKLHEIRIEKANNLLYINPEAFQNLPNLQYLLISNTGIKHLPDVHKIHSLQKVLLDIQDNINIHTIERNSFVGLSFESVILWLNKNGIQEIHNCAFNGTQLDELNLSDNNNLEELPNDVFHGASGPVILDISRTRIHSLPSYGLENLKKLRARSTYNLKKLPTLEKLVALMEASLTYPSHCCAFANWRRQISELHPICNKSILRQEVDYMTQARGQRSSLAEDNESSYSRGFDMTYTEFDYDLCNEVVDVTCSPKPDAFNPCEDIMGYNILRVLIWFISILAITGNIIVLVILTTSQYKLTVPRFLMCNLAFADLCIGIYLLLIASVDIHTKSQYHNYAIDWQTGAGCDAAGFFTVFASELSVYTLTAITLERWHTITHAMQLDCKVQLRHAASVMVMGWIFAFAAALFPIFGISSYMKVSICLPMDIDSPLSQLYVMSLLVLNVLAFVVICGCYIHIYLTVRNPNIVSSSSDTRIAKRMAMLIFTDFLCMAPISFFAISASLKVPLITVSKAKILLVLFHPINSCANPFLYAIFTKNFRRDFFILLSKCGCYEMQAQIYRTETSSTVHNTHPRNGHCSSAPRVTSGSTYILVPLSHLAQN
Assay type: cell-based
How it was run: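 cAMP output was measured by HTRF after 30 min at 37 °C agonist exposure (0–10,000 nM final) in stably FSHR-transfected CHO-K1 cells. Lysate cAMP was read off a standard curve and fitted to obtain half-maximal EC50.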

SMILES	EC50 [nM]
COc1cc2c(cc1-c1cncc(NC(=O)CCOCCOCCNC(=O)[C@H]3O[C@@H](CNC(=O)CN4CCN(CC(=O)O)CCN(CC(=O)O)CCN(CC(=O)O)CC4)[C@H](O)[C@@H](O)[C@H]3O)c1)-c1c(c(C(=O)N3CCOCC3(C)C)nn1-c1cc(Cl)cc(Cl)c1)CO2 [Compound 54A, indium (III) 2,2′,2″-(10-(2-((((2S,3R,4R,5R,6S)-6-((2-(2-(3-((5-(1-(3,5-dichlorophenyl)-3-(3,3-dimethylmorpholine-4-carbonyl)-7-methoxy-1,4-dihydrochromeno[4,3-c]pyrazol-8-yl)pyridin-3-yl)amino)-3-oxopropoxy)ethoxy)ethyl)carbamoyl)-3,4,5-trihydroxytetrahydro-2H-pyran-2-yl)methyl)amino)-2-oxoethyl)-1,4,7,10-tetraazacyclododecane-1,4,7-triyl)triacetate]	10 to 100
COc1cc2c(cc1-c1cncc(NC(=O)CCOCCOCCNC(=O)C3OC(CNC(=O)CN4CCN(CC(=O)O)CCN(CC(=O)O)CCN(CC(=O)O)CC4)C(O)C(O)C3O)c1)-c1c(c(C(=O)N3CCOCC3(C)C)nn1-c1cc(Cl)cc(Cl)c1)CO2 [Compound 54, 2,2′,2″-(10-(2-((((2S,3R,4R,5R,6S)-6-((2-(2-(3-((5-(1-(3,5-dichlorophenyl)-3-(3,3-dimethylmorpholine-4-carbonyl)-7-methoxy-1,4-dihydrochromeno[4,3-c]pyrazol-8-yl)pyridin-3-yl)amino)-3-oxopropoxy)ethoxy)ethyl)carbamoyl)-3,4,5-trihydroxytetrahydro-2H-pyran-2-yl)methyl)amino)-2-oxoethyl)-1,4,7,10-tetraazacyclododecane-1,4,7-triyl)triacetic acid--2,2,2-trifluoroacetic acid (1/1)]	< 10
COc1cc2c(cc1-c1cccc(NC(=O)C[C@@H](NC(=O)CN3CCN(CC(=O)O)CCN(CC(=O)O)CCN(CC(=O)O)CC3)C(=O)O)c1)-c1c(c(C(=O)N3CCOCC3(C)C)nn1-c1cc(Cl)cc(Cl)c1)CO2 [Compound 30]	10 to 100
COc1cc2c(cc1-c1cccc(/C(C)=N/OCCNC(=O)COCCOCCNC(=O)CN3CCN(CC(=O)O)CCN(CC(=O)O)CCN(CC(=O)O)CC3)c1)-c1c(c(C(=O)N3CCOCC3(C)C)nn1-c1cc(Cl)cc(Cl)c1)CO2 [Compound 41, (E)-2,2′,2″-(10-(1-(3-(1-(3,5-dichlorophenyl)-3-(3,3-dimethylmorpholine-4carbonyl)-7-methoxy-1,4-dihydrochromeno|4,3-c|pyrazol-8-yl)phenyl)-7,16-dioxo-3,9,12-trioxa-2,6,15-triazaheptadec-1-en-17-yl)-1,4,7,10-tetraazacyclododecane-1,4,7-triyl)triacetic acid]	10 to 100
COc1cc2c(cc1-c1cccc(NC(=O)NCCOCCOCCOCCOCCNC(=O)CN3CCN(CC(=O)O)CCN(CC(=O)O)CCN(CC(=O)O)CC3)c1)-c1c(c(C(=O)N3CCOCC3(C)C)nn1-c1cc(Cl)cc(Cl)c1)CO2 [Compound 8A]	< 10
COc1cc2c(cc1-c1cccc(NC(=O)CCOCCOCCOCCOCCNC(=O)CCC(C(=O)O)N3CCN(CC(=O)O)CCN(CC(=O)O)CCN(CC(=O)O)CC3)c1)-c1c(c(C(=O)N3CCOCC3(C)C)nn1-c1cc(Cl)cc(Cl)c1)CO2 (centres unmarked) [Compound 28]	< 10
COc1cc2c(cc1-c1cccc(NC(=O)CCC(=O)NCCCC[C@@H](NC(=O)[C@@H](CCC(=O)O)NC(=O)[C@@H](CCC(=O)O)NC(=O)[C@@H](CCC(=O)O)NC(=O)[C@@H](CCC(=O)O)NC(=O)[C@@H](C)NC(=O)CN3CCN(CC(=O)O)CCN(CC(=O)O)CCN(CC(=O)O)CC3)C(=O)N[C@H](C)C(N)=O)c1)-c1c(c(C(=O)N3CCOCC3(C)C)nn1-c1cc(Cl)cc(Cl)c1)CO2 [Compound 90, 2,2′,2″-(10-((4R,7R,10R,13R,16R,19R)-19-(((R)-1-amino-1-oxopropan-2yl)carbamoyl)-7,10,13,16-tetrakis(2-carboxyethyl)-28-((3-(1-(3,5-dichlorophenyl)-3-(3,3-dimethylmorpholine-4-carbonyl)-7-methoxy-1,4-dihydrochromeno|4,3-clpyrazol-8-yl)phenyl)amino)-4-methyl-2,5,8,11,14,17,25,28-octaoxo-3,6,9,12,15,18,24-heptaazaoctacosyl)-1,4,7,10-tetraazacyclododecane-1,4,7-triyl)triacetic acid] ({DOTA}-[dA][dE][dE][dE][dE][dK]([Suc-X1])[dA]-NH2)	10 to 100
COc1cc2c(cc1-c1cccc(NC(=O)NCCNC(=O)C[C@H](O)C[C@H](O)CCNC(=O)CN3CCN(CC(=O)O)CCN(CC(=O)O)CCN(CC(=O)O)CC3)c1)-c1c(c(C(=O)N3CCOCC3(C)C)nn1-c1cc(Cl)cc(Cl)c1)CO2 [Compound 14, 2,2′,2″-(10-(2-(((3R,5R)-7-((2-(3-(3-(1-(3,5-dichlorophenyl)-3-(3,3-dimethylmorpholine-4-carbonyl)-7-methoxy-1,4-dihydrochromeno[4,3-c]pyrazol-8-yl)phenyl)ureido)ethyl)amino)-3,5-dihydroxy-7-oxoheptyl)amino)-2-oxoethyl)-1,4,7,10-tetraazacyclododecane-1,4,7-triyl)triacetic acid]	< 10
COc1cc2c(cc1-c1cncc(NC(=O)CCCNC(=O)[C@H](N)CCCCNC(=O)CN3CCN(CC(=O)O)CCN(CC(=O)O)CCN(CC(=O)O)CC3)c1)-c1c(c(C(=O)N3CCOCC3(C)C)nn1-c1cc(F)cc(F)c1)CO2 [Compound 58, (R)-2,2′,2″-(10-(2-((5-amino-6-((4-((5-(1-(3,5-difluorophenyl)-3-(3,3-dimethylmorpholine-4-carbonyl)-7-methoxy-1,4-dihydrochromeno[4,3-c]pyrazol-8-yl)pyridin-3-yl)amino)-4-oxobutyl)amino)-6-oxohexyl)amino)-2-oxoethyl)-1,4,7,10-tetraazacyclododecane-1,4,7-triyl)triacetic acid--2,2,2-trifluoroacetic acid (1/1)]	10 to 100
COc1cc2c(cc1-c1cccc(NC(=O)C3OC(CNC(=O)CN4CCN(CC(=O)O)CCN(CC(=O)O)CCN(CC(=O)O)CC4)C(O)C(O)C3O)c1)-c1c(c(C(=O)N3CCOCC3(C)C)nn1-c1cc(Cl)cc(Cl)c1)CO2 [Compound 34, 2,2′,2″-(10-(2-((((2S,3R,4R,5R,6S)-6-((3-(1-(3,5-dichlorophenyl)-3-(3,3dimethylmorpholine-4-carbonyl)-7-methoxy-1,4-dihydrochromeno|4,3-c]pyrazol-8-yl)phenyl)carbamoyl)-3,4,5-trihydroxytetrahydro-2H-pyran-2-yl)methyl)amino)-2-oxoethyl)-1,4,7,10-tetraazacyclododecane-1,4,7-triyl)triacetic acid]	10 to 100
COc1cc2c(cc1-c1cccc(NC(=O)CCOCCNC(=O)CN3CCN(CC(=O)O)CCN(CC(=O)O)CCN(CC(=O)O)CC3)c1)-c1c(c(C(=O)N3CCOCC3(C)C)nn1-c1cc(Cl)cc(Cl)c1)CO2 [Compound 20, 2,2′,2″-(10-(2-((2-(3-((3-(1-(3,5-dichlorophenyl)-3-(3,3-dimethylmorpholine-4-carbonyl)-7-methoxy-1,4-dihydrochromeno[4,3-c]pyrazol-8-yl)phenyl)amino)-3-oxopropoxy)ethyl)amino)-2-oxoethyl)-1,4,7,10-tetraazacyclododecane-1,4,7-triyl)triacetic acid]	< 10
COc1cc2c(cc1-c1cccc(NC(=O)CCOCCOCCOCCOCCNC(=O)CN3CCN(CC(=O)O)CCN(CC(=O)O)CCN(CC(=O)O)CC3)c1)-c1c(c(C(=O)N3CCOCC3(C)C)nn1-c1cc(Cl)cc(Cl)c1)CO2 [Compound 17, 2,2′,2″-(10-(18-((3-(1-(3,5-dichlorophenyl)-3-(3,3-dimethylmorpholine-4-carbonyl)-7-methoxy-1,4-dihydrochromeno|4,3-c|pyrazol-8-yl)phenyl)amino)-2,18-dioxo-6,9,12,15-tetraoxa-3-azaoctadecyl)-1,4,7,10-tetraazacyclododecane-1,4,7-triyl)triacetic acid]	< 10

Same assay, conditions: hFSHR Agonist cAMP EC50, CHO-K1 human FSHR cells, 30 minutes at 37° C., HTRF cAMP kit

SMILES	EC50 [nM]
COc1cc2c(cc1-c1cccc(NC(=O)CCOCCOCCOCCOCCNC(=O)CN3CCN(CC(=O)O)CCN(CC(=O)O)CCN(CC(=O)O)CC3)c1)-c1c(c(C(=O)N3CCOCC3(C)C)nn1-c1cc(Cl)cc(Cl)c1)CO2 [Compound 17B]	< 10
COc1cc2c(cc1-c1cncc(NC(=O)CCNC(=O)[C@@H](CCCCNC(=O)CN3CCN(CC(=O)O)CCN(CC(=O)O)CCN(CC(=O)O)CC3)NC(=O)CN3CCN(CCS(=O)(=O)O)CC3)c1)-c1c(c(C(=O)N3CCOCC3(C)C)nn1-c1cc(F)cc(F)c1)CO2 [Compound 50, (R)-2,2′,2″-(10-(2-((6-((3-((5-(1-(3,5-difluorophenyl)-3-(3,3-dimethylmorpholine-4-carbonyl)-7-methoxy-1,4-dihydrochromeno[4,3-c]pyrazol-8-yl)pyridin-3-yl)amino)-3-oxopropyl)amino)-6-oxo-5-(2-(4-(2-sulfoethyl)piperazin-1-yl)acetamido)hexyl)amino)-2-oxoethyl)-1,4,7,10-tetraazacyclododecane-1,4,7-triyl)triacetic acid--formic acid (1/1)]	> 100

Source: patent publication US20260137819A1 (Radionetics Oncology, Inc., priority 2022, published 2026)
